Data reported in US20090281114A1, “INDOLYLALKYL DERIVATIVES OF PYRIMIDINYLPIPERAZINE AND METABOLITES THEREOF FOR TREATMENT OF ANXIETY, DEPRESSION, AND SEXUAL DYSFUNCTION” (Fabre-Kramer Pharmaceuticals, Inc., priority 2008, published 2009).
Where a name gives a salt, the structure may show the parent alone.

Target: 5-HT1D binding site
Test: 5-HT1D binding site affinity (tritiated serotonin; method of Heuring and Peroutka with minor modifications)
Conditions: in vitro
Method: Determination of 5-HT1D binding properties was accomplished employing methodology such as that described by Heuring and Peroutka, J. Neurosci., 7(3), 1987, 894-903; with only minor modifications. In vitro IC50 (nM) test values were determined for the compounds of this invention employing tritiated serotonin.

In order of falling IC50:
1. COc1cncnc1N1CCN(CCCc2c[nH]c3cc(F)c(F)cc23)CC1 [Example 74]  29 nM
2. CCC(CCc1c[nH]c2ccccc12)N1CCN(c2ncncc2OC)CC1 (stereo not shown) [Example 54, 3-[3-[4-(5-Methoxy-4-pyrimidinyl)-1-piperazinyl]pentyl]indole]  20.5 nM
3. CCS(=O)(=O)N(C)c1ccc2[nH]cc(CCCN3CCN(c4ncncc4OC)C(C)C3)c2c1 (stereo not shown) [Example 69]  19.1 nM
4. CCS(=O)(=O)Nc1ccc2[nH]cc(CCCN3CCN(c4ncncc4OC)C(C)C3)c2c1 (stereo not shown) [Example 70, 1-[3-(5-Ethanesulfonylamino-1H-indol-3-yl)propyl]-4-(5-methoxy-4-pyrimidinyl)-3-methylpiperazine]  17.1 nM
5. COc1cncnc1N1CCN(CCCc2c[nH]c3ccc(OCc4ccccc4)cc23)CC1 [Example 72]  14.3 nM
6. CCS(=O)(=O)Nc1ccc2[nH]cc(CCCN3CCN(c4ncncc4OC)CC3)c2c1 [Example 67]  13.7 nM
7. CCS(=O)(=O)N(C)c1ccc2[nH]cc(CCCN3CCN(c4ncncc4OC)CC3)c2c1 [Example 68]  12.9 nM
8. COc1cncnc1N1CCN(CCCc2c[nH]c3c(F)cc(F)cc23)CC1 [Example 76]  8.1 nM
9. COc1cncnc1N1CCN(CCCc2c[nH]c3ccc(NS(C)(=O)=O)cc23)CC1 [Example 63]  5.2 nM
10. COc1cncnc1N1CCN(CCCc2c[nH]c3c(F)ccc(F)c23)CC1 [Example 75]  5.1 nM
11. COc1cncnc1N1CCN(CCC(C)c2c[nH]c3ccccc23)CC1 (stereo not shown) [Example 53, 1-[3-(1H-indol-3-yl)butyl]-4-(5-methoxy-4-pyrimidinyl)piperazine]  5 nM
12. COc1cncnc1N1CCN(CCCc2c[nH]c3ccc(N(C)S(C)(=O)=O)cc23)CC1 [Example 65]  4.9 nM
13. COc1cncnc1N1CCN(CCCc2c[nH]c3ccccc23)CC1C (stereo not shown) [Example 62]  4.2 nM
14. COc1cncnc1N1CCN(CCCc2c[nH]c3ccc(F)cc23)CC1 [Example 60, 3-(3-(4-(5-methoxy-4-pyrimidinyl)-1-piperazinyl)propyl)-5-fluoro-1H-indole hydrochloride]  3 nM
15. CCOc1ccc2[nH]cc(CCCN3CCN(c4ncncc4OC)CC3)c2c1 [Example 71]  2.2 nM
16. CCOc1cncnc1N1CCN(CCCc2c[nH]c3ccccc23)CC1 [Example 52, 4-(5-Ethoxy-4-pyrimidinyl)-1-[3-(1H-indol-3-yl)propyl]piperazine hydrochloride hydrate]  2 nM
17. COc1ccc2[nH]cc(CCCN3CCN(c4ncncc4OC)CC3)c2c1 [Example 73]  1.1 nM
18. COc1cncnc1N1CCN(CCCc2c[nH]c3ccc(O)cc23)CC1 [Example 55, 1-[3-(5-Hydroxy-1H-indol-3-yl)propyl]-4-(5-methoxy-4-pyrimidinyl)piperazine]  0.8 nM

System: not given
Test: not given
Conditions: not given

For `COc1cncnc1N1CCN(CCCc2c[nH]c3ccc(C(C)=O)cc23)CC1.Cl`, the melting point was 215 to 217 °C (dec.).
With `COc1cncnc1N1CCN(CCCc2c[nH]c3ccc(OCc4ccccc4)cc23)CC1` (as salt: HCl) (hydrate or solvate) [Example 72] the melting point was 180 °C (dec.).
For `COc1cncnc1N1CCN(CCCc2c[nH]c3ccccc23)CC1C` (stereo not shown) (as salt: HCl) [Example 62], the melting point was 185 °C (dec.).
With `COc1ccc2[nH]cc(CCCN3CCN(c4ncncc4OC)CC3)c2c1` (as salt: HCl) [Example 73] the melting point was 130 to 150 °C (dec.).
With `COc1cncnc1N1CCN(CCCc2c[nH]c3c(F)cc(F)cc23)CC1` (as salt: HCl) [Example 76] the melting point was > 250 °C (dec.).
For `COc1cncnc1N1CCN(CCCc2c[nH]c3ccc(CS(=O)(=O)N(C)C)cc23)CC1` (as salt: hydrochloride) (hydrate or solvate) [Example 30, 1-[3-[5-[[(Dimethylamino)sulfonyl]methyl]-1H-indol-3-yl]propyl]-4-(5-methoxy-4-pyrimidinyl)piperazine], the melting point was 210 °C (dec.).
For `COc1cncnc1N1CCN(CCCc2c[nH]c3ccc(OCC#N)cc23)CC1` (as salt: hydrochloride) [Example 45, 3-[3-[4-(5-Methoxy-4-pyrimidinyl)-1-piperazinyl]propyl]-5-(cyanomethyl)oxyindole], the melting point was 198 to 200 °C (dec.).
In the case of `COc1cncnc1N1CCN(CCC(C)c2c[nH]c3ccccc23)CC1` (stereo not shown) (as salt: hydrochloride) [Example 53, 1-[3-(1H-indol-3-yl)butyl]-4-(5-methoxy-4-pyrimidinyl)piperazine], the melting point is reported as 169 to 172 °C (dec.).
With `COc1cncnc1N1CCN(CCCc2c[nH]c3ccc(N(C)S(=O)(=O)C(F)(F)F)cc23)CC1` (as salt: salt) [Example 26, 1-[3-[5-[Methyl(trifluoromethanesulfonyl)amino]-1H-indol-3-yl]propyl]-4-(5-methoxy-4-pyrimidinyl)piperazine] the melting point was greater than 230 °C.
For `COc1cncnc1N1CCN(CCCc2c[nH]c3ccc(N)cc23)CC1` (as salt: salt) [Example 43, 3-[3-[4-(5-Methoxy-4-pyrimidinyl)-1-piperazinyl]propyl]-5-aminoindole], the melting point was 192 °C (dec.).
With `CCC(CCc1c[nH]c2ccccc12)N1CCN(c2ncncc2OC)CC1` (stereo not shown) (as salt: salt) [Example 54, 3-[3-[4-(5-Methoxy-4-pyrimidinyl)-1-piperazinyl]pentyl]indole] the melting point was 145 °C (dec.).
Compound `CCOc1cncnc1N1CCN(CCCc2c[nH]c3ccccc23)CC1.Cl.O` (hydrate or solvate) [Example 52, 4-(5-Ethoxy-4-pyrimidinyl)-1-[3-(1H-indol-3-yl)propyl]piperazine hydrochloride hydrate] has a melting point greater than 230 °C.

First: CCCCNC(=O)c1ccc2[nH]cc(CCCN3CCN(c4ncncc4OC)CC3)c2c1.Cl
Second: COc1cncnc1N1CCN(CCCc2c[nH]c3ccc(CNC(C)=O)cc23)CC1 (hydrate or solvate) [Example 40, 1-[[5-[[(Acetyl)amino]methyl]-1H-indol-3-yl]propyl]-4-(5-methoxy-4-pyrimidinyl)piperazine]
The melting point of the first is higher: 180 to 185 °C for the first, 169 to 174 °C for the second.

First: COc1cncnc1N1CCN(CCCc2c[nH]c3ccc(N4CCCC4=O)cc23)CC1.O=C(O)C(=O)O
Second: COc1cncnc1N1CCN(CCCc2c[nH]c3ccc(O)cc23)CC1 (as salt: hydrochloride) [Example 55, 1-[3-(5-Hydroxy-1H-indol-3-yl)propyl]-4-(5-methoxy-4-pyrimidinyl)piperazine]
The melting point of the first is lower: 100 to 101 °C for the first, 215 °C for the second.

First: CCS(=O)(=O)Nc1ccc2[nH]cc(CCCN3CCN(c4ncncc4OC)C(C)C3)c2c1 (stereo not shown) (as salt: HCl) (hydrate or solvate) [Example 70, 1-[3-(5-Ethanesulfonylamino-1H-indol-3-yl)propyl]-4-(5-methoxy-4-pyrimidinyl)-3-methylpiperazine]
Second: CCS(=O)(=O)N(C)c1ccc2[nH]cc(CCCN3CCN(c4ncncc4OC)C(C)C3)c2c1 (stereo not shown) (as salt: HCl) [Example 69]
The melting point of the first is higher: 212 to 214 °C for the first, 205 to 207 °C for the second.

First: COc1cncnc1N1CCN(CCCc2c[nH]c3ccc(NS(C)(=O)=O)cc23)CC1 (as salt: HCl) [Example 63]
Second: CCS(=O)(=O)Nc1ccc2[nH]cc(CCCN3CCN(c4ncncc4OC)CC3)c2c1 (as salt: HCl) [Example 67]
The melting point of the first is higher: 150 to 152 °C for the first, 140 to 145 °C for the second.

First: COc1cncnc1N1CCN(CCCc2c[nH]c3ccc(N(C)S(C)(=O)=O)cc23)CC1 (as salt: HCl) [Example 65]
Second: CCS(=O)(=O)N(C)c1ccc2[nH]cc(CCCN3CCN(c4ncncc4OC)CC3)c2c1 (as salt: HCl) [Example 68]
The melting point of the first is higher: 227 to 230 °C for the first, 223 to 225 °C for the second.

First: COc1cncnc1N1CCN(CCCc2c[nH]c3ccc(CNS(C)(=O)=O)cc23)CC1 (as salt: hydrochloride) (hydrate or solvate) [Example 31, 4-(5-Methoxy-4-pyrimidinyl)-1-[[5-[[(methylsulfonyl)amino]methyl]-1H-indol-3-yl]propyl]piperazine]
Second: COc1cncnc1N1CCN(CCCc2c[nH]c3ccc(CCS(C)(=O)=O)cc23)CC1 [Example 50, 4-(5-Methoxy-4-pyrimidinyl)-1-[3-[5-[2-(methylsulfonyl)ethyl]-1H-indol-3-yl]propyl]piperazine]
The melting point of the first is higher: 204 to 206 °C for the first, 153 to 154 °C for the second.

First: COc1cncnc1N1CCN(CCCc2c[nH]c3ccc(F)cc23)CC1 (as salt: hydrochloride) [Example 60, 3-(3-(4-(5-methoxy-4-pyrimidinyl)-1-piperazinyl)propyl)-5-fluoro-1H-indole hydrochloride]
Second: CCOc1ccc2[nH]cc(CCCN3CCN(c4ncncc4OC)CC3)c2c1 [Example 71]
The melting point of the first is higher: 119 to 122 °C for the first, 112 to 114 °C for the second.

First: COc1cncnc1N1CCN(CCCc2c[nH]c3ccc(CCS(C)(=O)=O)cc23)CC1C (stereo not shown) (as salt: salt) [Example 51, 4-(5-Methoxy-4-pyrimidinyl)-1-[3-[5-[2-(methylsulfonyl)ethyl]-1H-indol-3-yl]propyl]-3-methylpiperazine]
Second: CCS(=O)(=O)N(C)Cc1ccc2[nH]cc(CCCN3CCN(c4ncncc4OC)CC3)c2c1 [Example 38, 4-(5-Methoxy-4-pyrimidinyl)-1-[[5-[[methyl(ethylsulfonyl)amino]-methyl]-1H-indol-3-yl]propyl]piperazine]
The melting point of the first is higher: 220 to 223 °C for the first, 113 to 115 °C for the second.

Compared with `CCS(=O)(=O)N(Cc1ccccc1)Cc1ccc2[nH]cc(CCCN3CCN(c4ncncc4OC)CC3)c2c1` [Example 39, 4-(5-Methoxy-4-pyrimidinyl)-1-[[5-[[phenylmethyl(ethylsulfonyl)amino]-methyl]-1H-indol-3-yl]propyl]piperazine], `COc1cncnc1N1CCN(CCCc2c[nH]c3cc(F)c(F)cc23)CC1` [Example 74] is higher in melting point: 73 to 75 °C for the first, 102 to 104 °C for the second.

In the case of `COc1cncnc1N1CCN(CCCc2c[nH]c3c(F)ccc(F)c23)CC1` [Example 75], the melting point is reported as 160 to 165 °C.
